Experimental data from patent publication US12600716B2 (Gannex Pharma Co., Ltd., priority 2020, dated 2026).
Where two headings read alike, the source gives them in different places.

Key:
[1] = Mouse pharmacokinetic studies (IV and PO); format: in vivo, Male CD-1 mice; conditions: for PO F: PO 10 mg/kg vs IV 2.0 mg/kg; for Vd / AUC(0-t) / clearance / half-life / Cmax / Tmax: male, CD-1, plasma; for clearance: read-out: IV Cl; for half-life: read-out: IV T½ (converted)
Experimental: Mouse Pharmacokinetic Studies
Typical PK study procedure. For i.v. PK studies, a group of three fasted Male CD-1 mice were dosed with the compound (2.0 mg/kg, 0.50 mg/mL in 5% solutol in saline, clear solution), and 0.02 mL blood was collected at 0.0830, 0.250, 0.500, 1.00, 2.00, 4.00, 8.00, 24.0 h. For PO PK studies, a group of three fasted Male CD-1 mice were dosed with the compound (10 mg/kg, 1 mg/mL in 5% solutol in saline, clear solution), and 0.02 mL blood was collected at 0.250, 0.500, 1.00, 2.00, 4.00, 6.00, 8.00, 24.0 h. The blood was collected into EP tubes (containing EDTA K20.85-1.15 mg) and centrifuged at 3,000 g or 3,200 g at 4° C. for 10 min) and plasma was isolated and divided into two vials. One was used for bioanalysis and one was kept as backup. The samples were kept at −60° C. or below, until being analyzed by LC MS/MS. The samples were analyzed with AB SCIEX INSTRUMENTS LC-MS/MS AU-Triple Quad 6500 Plus and data were processed with Phoenix WinNonlin 6.3 (IV-noncompartmental model and PO-noncompartmental model).

hFXR-LBD-GAL4 = target: T1, hFXR-LBD-GAL4 (Homo sapiens, UniProt Q96RI1); test: FXR agonist transactivation ability: luciferase reporter gene in HEK293T; format: cell-based; conditions: read-out: Cell activity
T1 construct: GAL4 (fusion partner); host or cells: HEK293T
T1 sequence (Q96RI1 262-486 limits assumed): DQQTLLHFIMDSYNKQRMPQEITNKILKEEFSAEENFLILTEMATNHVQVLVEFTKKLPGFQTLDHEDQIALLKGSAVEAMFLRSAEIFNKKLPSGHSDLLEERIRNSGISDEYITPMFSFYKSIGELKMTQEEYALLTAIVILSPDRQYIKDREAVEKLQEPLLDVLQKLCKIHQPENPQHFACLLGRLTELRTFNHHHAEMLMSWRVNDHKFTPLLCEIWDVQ
Experimental: FXR Agonist Transactivation Ability
Evaluation of the ability of the compound of the present invention to promote FXR transactivation was conducted by using luciferase reporter gene expression technology.
• 1. Cell line: HEK293T (Invitrogen) • 2. Expression plasmid: pBIND-hFXR-LBD-GAL4 (Promega), pGL4.35-luciferase (Promega) • 3. Cell culture medium: 10% serum and penicillin/streptomycin double antibody in DMEM medium • 4. Detection reagent: Steady-Glo fluorescence detection system (Promega). • 5. Transfection reagent: TransIT-293 Transfection Reagent (MIRUS BIO)
• 1. The compound was prepared into a 10 mM DMSO stock solution and stored in a −20° C. refrigerator for a long time. • 2. Resuscitation HEK293T cells were seeded in 10 cm culture dishes at a concentration of 5.5×10^6 and incubated for 16 hours at 37° C. in a 5% CO2 incubator. • 3. Return the transfection reagent to room temperature before transfection. The Trans-IT solution was added dropwise to Opti-MEM, and mixed by inversion for 5 minutes; the expression plasmid was added, mixed by inversion, and incubated at room temperature for 20 minutes. • 4. Add the transfection mixture from Step 3 to the prepared 10 cm dish in Step 2 and incubate for 5-6 hours in a 5% CO2 incubator. • 5. Dilute the compound 3 folds to 10 concentration points using DMSO; add 25 nl of compound per well in a 384-well plate using an Echo 550 sonic pipette; add HEK293T cells to the 384-well plate at a concentration of 15,000 cells/well; 37° C. incubate for 16-20 hours in a 5% CO2 incubator. • 6. Add 25 μl of Steady-Glo Fluorescent Reagent to each well and read the fluorescence on an Envision 2104 plate reader. • 7. Calculate the EC50 value of the activation of the compound.

human FXR protein = target: T2, human FXR protein (Homo sapiens, UniProt Q96RI1); test: FXR agonist binding ability: time-resolved fluorescence (LanthaScreen) FXR/coactivator assay; format: biochemical; conditions: GST-labeled human FXR, fluorescein-labeled coactivator, TR-FRET
T2 construct: purchased Invitrogen
Experimental: FXR Agonist Binding Ability Evaluation of the activation effect of the compound of the present invention with regard to the binding of FXR to its co-stimulatory factor SRC-1 was conducted by using time-resolved analytical techniques. Protein: glutathione-S-transferase (GST)-labeled human FXR protein (Invitrogen) • 2. Coactivator: Fluorescein-labeled steroid receptor coactivator (SRC2-2) (Invitrogen) • 3. Detection reagent: LanthaScreen Time-Resolved Fluorescence Analysis Kit (Invitrogen) • 1. The compound was prepared into a 10 mM DMSO stock solution and stored in a −20° C. refrigerator for a long time. • 2. The compound was diluted to 1 mM before the experiment, and then the compound was diluted 3-fold to 10 concentration points using DMSO. Then use buffer G (Invitrogen, PV4553) to dilute these 10 concentration points by 50 times to become a working fluid. Add 10 μl of each working solution to each well of a 384-well plate. • 3. Prepare a human FXR protein solution (final concentration 20 nM) in chilled buffer G and add 5 μl of human FXR protein solution to each well of a 384-well plate. • 4. Prepare a mix of buffer G containing 2 μM fluorescein-labeled steroid receptor coactivator and 20 nM GST antibody. • 5. Add 5 μl of the mixture prepared in Step 4 to a 384-well plate. • 6. Centrifuge the 384-well plate at 1000 g for 1 minute. • 7. Incubate for 1 hour at room temperature in the dark. • 8. Read the 384-well plate at 520 nm and 495 nm on an Envision 2104 plate reader. • 9. Calculate the EC50 value of the activation effect of the compound.

[2] = test system: STZ+DEN+HFD induced NASH model; test: STZ+DEN+HFD induced NASH model in mice; format: in vivo, male C57BL/6 mice; conditions: 30 mg/kg PO QD 7 weeks
Experimental: Therapeutic efficacy of FXR compounds was evaluated in STZ+DEN+HFD induced NASH model in male C57BL/6 mice. Briefly, newborn male C57BL/6 mice were injected with streptozocin (STZ) at Week 2 to introduce diabetes and diethylnitrosamine (DEN) at Week 4 to promote liver fibrosis. Mice receiving neither STZ nor DEN were used as negative control (Group 1, n=12) and were fed with normal diet. At Week 6, 60 diabetic mice were selected (blood glucose>12 mmol/L after 6 h of fasting) and were fed with high fat diet (HFD, diet that contains 60 kcal % fat). After one week on HFD, animals were randomly assigned into 5 groups based on body weight: Group 2 (n=12), disease model group, no compound treatment; Group 3 (n=10), positive control group, treated with OCA (30 mg/kg); Group 4 (n=12), treated with Compound 1 (3 mg/kg); Group 5 (n=12), treated with Compound 1 (10 mg/kg); Group 6 (n=12), treated with Compound 1 (30 mg/kg). OCA and Compounds 1 were PO QD, for 7 weeks. On the day after last dose, all animals were euthanized and liver tissues were fixed with formalin for pathological evaluation.

[3] = test system: DEN+HFD+CHOL induced NASH model; test: DEN+HFD+CHOL induced NASH model in rats; format: in vivo, male SD rats; conditions: 30 mg/kg PO QD 7 weeks; p<0.001
Experimental: Therapeutic efficacy of FXR compounds was evaluated in DEN+HFD+CHOL induced NASH model in male SD rats. Newborn male rats received DEN injection at Week 2 after birth to generate NASH model. Negative control animals (Group 1, n=10) received no DEN injection. At Week 4, 50 rats that received DEN injections started HFD+CHOL diet (60 kcal % Fat+1.25% Cholesterol+0.5% cholate) for 8 weeks, while negative control animals were still on normal diet. At Week 5, DEN treated rats were randomly assigned into 5 groups (Group 2-6) based on body weight. Disease Group (Group 2, n=10), received no treatment; OCA group (Group 3, n=10) received OCA at 30 mg/kg. Group 4-6 (n=10 each) received Compound 1 at low (3 mg/kg), […], and […]. OCA and Compound 1 were given PO QD, for 7 weeks. On the day after last dose, all animals were euthanized and liver tissues were fixed with formalin for pathological evaluation.

[4] = IV 2.0 mg/kg, read-out: IV AUC 0-t
[5] = PO 10 mg/kg, read-out: PO AUC 0-t

| PO F [1] [%] | Vd ([1]; IV 2.0 mg/kg) [L/kg] | AUC(0-t) [1, 4] [ng·h/mL] | clearance ([1]; IV 2.0 mg/kg) [mL/min/kg] | half-life ([1]; IV 2.0 mg/kg) [min] | Cmax ([1]; PO 10 mg/kg) [ng/mL] | Tmax ([1]; PO 10 mg/kg) [min] | AUC(0-t) [1, 5] [ng·h/mL] | EC50 (hFXR-LBD-GAL4) [nM] | EC50 (human FXR protein) [nM] | Structure (SMILES) | NAS score [2] | NAS score [3] |
| --- | --- | --- | --- | --- | --- | --- | --- | --- | --- | --- | --- | --- |
| 33.2 | 0.897 | 1690 | 19.7 | 96.6 | 2080 | 30 | 2780 | < 200 | < 50 | Cc1nc(Oc2cccc3cc(OCc4c(-c5c(Cl)cccc5Cl)noc4C4CC4)ccc23)ccc1C(=O)O [Compound 27, 6-((6-((5-cyclopropyl-3-(2,6-dichlorophenyl)isoxazol-4-yl)methoxy)naphthalen-1-yl)oxy)-2-methylnicotinic acid] |  |  |
| 29.9 | 0.663 | 1180 | 28.4 | 58.6 | 2130 | 30 | 1740 | < 200 | < 50 | Cc1cc(C(=O)O)cnc1Oc1cccc2cc(OCc3c(-c4c(Cl)cccc4Cl)noc3C3CC3)ccc12 [Compound 28, 6-((6-((5-cyclopropyl-3-(2,6-dichlorophenyl)isoxazol-4-yl)methoxy)naphthalen-1-yl)oxy)-5-methylnicotinic acid] |  |  |
| 9.74 | 2.77 | 304 | 110 | 36.8 | 133 | 20 | 140 | < 200 | < 50 | O=C(O)c1ccc(Oc2ccc3ccc(OCc4c(-c5c(Cl)cccc5Cl)noc4C4CC4)cc3c2)nc1 [Compound 31, 6-((7-((5-cyclopropyl-3-(2,6-dichlorophenyl)isoxazol-4-yl)methoxy)naphthalen-2-yl)oxy)nicotinic acid] |  |  |
| 54.7 | 1.36 | 1400 | 24 | 61.8 | 1400 | 30 | 3810 | < 200 | < 50 | O=C(O)c1ccc(Oc2ccc3c(F)c(OCc4c(-c5c(Cl)cccc5Cl)noc4C4CC4)ccc3c2)nc1 [Compound 32, 6-((6-((5-cyclopropyl-3-(2,6-dichlorophenyl)isoxazol-4-yl)methoxy)-5-fluoronaphthalen-2-yl)oxy)nicotinic acid] |  |  |
| 23.7 | 2.06 | 559 | 60.4 | 73.8 | 384 | 56 | 646 | < 200 | < 50 | O=C(O)c1ccc(F)cc1Oc1c(F)ccc2cc(OCc3c(-c4c(Cl)cccc4Cl)noc3C3CC3)ccc12 [Compound 44, 2-((6-((5-cyclopropyl-3-(2,6-dichlorophenyl)isoxazol-4-yl)methoxy)-2-fluoronaphthalen-1-yl)oxy)-4-fluorobenzoic acid] |  |  |
| 15.7 | 1.04 | 1500 | 22.1 | 84 | 627 | 60 | 1140 | < 200 | < 50 | Cc1nc(Oc2c(F)ccc3cc(OCc4c(-c5c(Cl)cccc5Cl)noc4C4CC4)ccc23)ccc1C(=O)O [Compound 45, 6-((6-((5-cyclopropyl-3-(2,6-dichlorophenyl)isoxazol-4-yl)methoxy)-2-fluoronaphthalen-1-yl)oxy)-2-methylnicotinic acid] |  |  |
| 28.6 | 0.495 | 1500 | 22.2 | 38.3 | 2150 | 30 | 2140 | < 200 | < 50 | Cc1cc(C(=O)O)cnc1Oc1c(F)ccc2cc(OCc3c(-c4c(Cl)cccc4Cl)noc3C3CC3)ccc12 [Compound 47, 6-((6-((5-cyclopropyl-3-(2,6-dichlorophenyl)isoxazol-4-yl)methoxy)-2-fluoronaphthalen-1-yl)oxy)-5-methylnicotinic acid] |  |  |
|  |  |  |  |  |  |  |  |  |  | CC[C@H]1[C@@H](O)[C@@H]2[C@H](CC[C@]3(C)[C@@H]([C@H](C)CCC(=O)O)CC[C@@H]23)[C@@]2(C)CC[C@@H](O)C[C@@H]12 [OCA, reference compound] | decrease in NAS score | decrease in NAS score |
